Reference: patent publication US5270313A, “Sulfonamides and uses” (Hoffmann-La Roche Inc., priority 1991, dated 1993)
pEC50, pIC50: −log10 of the molar value.

Experiments:
[1] = system: endothelin-induced contractions in isolated aorta rings; experiment: Inhibition of endothelin-induced contractions in isolated aorta rings of the rat; format: cell-based, rat (Wistar-Kyoto); conditions: for Dosage ratio (correcting shift): shift to higher values of the EC50 of endothelin induced by 100 μm of test compound, endothelium removed
Method: II. Inhibition of endothelin-induced contractions in isolated aorta rings of the rat
Rings with a thickness of 5 mm were dissected from the thorax aorta of adult Wistar-Kyoto rats. The endothelium was removed by rubbing the internal surface slightly. Each ring was immersed in an isolated bath at 37° C. in 10 ml of Krebs-Henseleit solution while gassing with 95% O2 and 5% CO2. The isometric tension of the rings was measured. The rings were stretched to an initial tension of 3 g. After incubation with the test compound or vehicle for 10 minutes cumulative doses of endothelin-1 were added. The activity of the test compound was determined by calculating the dosage ratio, that is, the correcting shift (shift to higher values) of the EC50 of endothelin induced by 100 μm of test compound, whereby EC50 denotes the endothelin concentration required for a half-maximum contraction. […] The EC50 of endothelin in the absence of test compounds is 0.3 nM.

vasoconstriction = experiment: Inhibitory activity on vasoconstriction in vivo in the rat (renal ischemia, renal blood flow); conditions: 10 minutes prior to 45 min renal ischemia, control reduced by 43±4%
Method: III. The inhibitory activity of the compounds of formula I on vasoconstriction can be observed in vivo in the rat in the test procedure described hereinafter:
Rats were anaesthetized with Na thiobutabarbital (100 mg/kg i.p.). […] A Doppler probe was placed around the left renal artery and attached to a Doppler measuring device. A renal ischemia was produced by pinching off the left renal artery at its point of emergence for 45 minutes. The test compounds were administered 10 minutes prior to the onset of the ischemia intra-arterially (i.a.) in doses of 5 mg/kg or intraveneously (i.v) in doses of 10 mg/kg. In control experiments, the renal blood flow was reduced by 43±4% in comparison to the pre-ischemic value.

endothelin receptors = experiment: Inhibition of endothelin binding to human placenta membranes (125I-endothelin); conditions: concentration required to inhibit the specific binding of 125I-endothelin by 50%, 125I-endothelin 20 pM, 20° C. for 2 hours or 4° C. for 24 hours
Method: I. Inhibition of endothelin binding to human placenta membranes (see Life Sci 44:1429 (1989)
Human placenta is homogenized in 5 mM Tris buffer, pH 7.4, which contains 1 mM MgCl2 and 250 mM sucrose. The product of the homogenization is centrifuged at 4° C. for 15 minutes at 3000 g. The supernatant containing the plasma membrane fractions is centrifuged for 30 minutes at 72000 g and the precipitate obtained from, in each case, 10 g of original tissue is suspended in 1 ml of 75 mM Tris buffer, pH 7.4, containing 25 mM MgCl2 and 250 mM sucrose and freeze-dried at -20° C. in 1 ml aliquots.
For the binding assay, the freeze-dried membrane preparations are thawed and, after centrifugation at 20° C. for 10 minutes at 25000 g, re-suspended in assay buffer (50 mM Tris buffer, pH 7.4, containing 25 mM MnCl2, 1 mM EDTA and 0.5% bovine serum albumin). 100 μl of this membrane suspension, containing 70 μg of protein, are incubated with 50 μl of ^125 I-endothelin (specific activity 2200 Ci/mMol) in assay buffer (25000 cpm, final concentration 20 pM) and 100 μl of assay buffer which contains varying concentrations of the test compound. The incubation is carried out at 20° C. for 2 hours or at 4° C. for 24 hours. The separation of free and membrane-bound radioligands is carried out by filtration over a glass fiber filter.
The inhibitory activity of compounds of formula I determined in this test procedure is given in Table 1 as the IC50, that is, as the concentration [μM] which is required to inhibit the specific binding of ^125 I-endothelin by 50%.

Row | Molecule | Dosage ratio (correcting shift) [1] | % Decrease in the renal of blood flow (vasoconstriction; i.a., 5 mg/kg) [%] | pIC50 (endothelin receptors) | % Decrease in the renal of blood flow (vasoconstriction; i.v., 10 mg/kg) [%] | pEC50 ([1]; in the absence of test compounds, half-maximum contraction)
1 | O=S(=O)(Nc1ncnc(OCCO)c1-c1ccc(Cl)cc1)c1ccc(C(F)(F)F)cc1 [Example 1, N-[5-(p-chlorophenyl)-6-(2-hydroxyethoxy)-4-pyrimidinyl]-α,α,α-trifluoro-p-toluenesulfonamide] | 30 | 7 | 5.30 |  | 
2 | COc1ccc(-c2c(NS(=O)(=O)c3ccc(C(C)C)cc3)ncnc2OCCO)cc1 [Example 54, N-[6-(2-hydroxyethoxy)-5-(p-methoxyphenyl)-4-pyrimidinyl]-p-isopropylbenzene-sulfonamide] | 21 |  | 5.52 |  | 
3 | COc1ccccc1Cc1c(NS(=O)(=O)c2ccc(C(C)C)cc2)ncnc1OCCO [Example 63] | 23 |  | 5.80 |  | 
4 | COc1ccccc1Cc1c(NS(=O)(=O)c2ccc(C(C)(C)C)cc2)ncnc1OCCO [Example 64, p-t-butyl-N-[6-(2-hydroxyethoxy)-5-(o-methoxy-benzyl)-4-pyrimidinyl]benzenesulfonamide] | 19 |  | 5.70 |  | 
5 | CSc1ccccc1Cc1c(NS(=O)(=O)c2ccc(C(C)C)cc2)ncnc1OCCO [Example 66] | 96 |  | 6.30 |  | 
6 | Cc1ccc(-c2c(NS(=O)(=O)c3ccc(C(C)C)cc3)ncnc2OCCO)cc1 [Example 83] | 86 |  | 6.15 | 29 | 
7 | Cc1ccc(-c2c(NS(=O)(=O)c3ccc(C(C)(C)C)cc3)ncnc2OCCO)cc1 [Example 84, p-tert-butyl-N-[6-(2-hydroxyethoxy)-5-p-tolyl-4-pyrimidinyl]benzenesulfonamide] | 106 |  | 6.00 |  | 
8 | endothelin: endothelin-1, contractile agonist added in cumulative doses to rat aorta rings [reference compound] |  |  |  |  | 9.52
